The text below walks through data of US20090239887A1, “Method of resolution and antiviral activity of 1,3-oxathiolane nucleoside enantiomers” (Emory University, priority 1990, published 2009).

The inhibition is the drop in the measured response relative to a control, in per cent. Broadly, the IC50 is the midpoint of a concentration-inhibition curve.

Read-outs that look alike come from different tables or passages of the source.

Data set [1] has as its system HIV. To be noted: cited from earlier work.
Data set [2] relates to HIV-1 (strain LAV). The data set is described as follows: microbe, parasite or virus in culture. In kind it is cell-based. From the text:
It is often desirable to screen a number of racemic mixtures of nucleosides as a preliminary step to determine which warrant further resolution into enantiomerically enriched components and evaluation of antiviral activity. The ability of nucleosides to inhibit HIV can be measured by various experimental techniques. The technique used herein, and described in detail below, measures the inhibition of viral replication in phytohemagglutinin (PHA) stimulated human peripheral blood mononuclear (PBM) cells infected with HIV-1 (strain LAV). The amount of virus produced is determined by measuring the virus-coded reverse transcriptase enzyme. The amount of enzyme produced is proportional to the amount of virus produced.
A. Three-day-old phytohemagglutinin-stimulated PBM cells (10^6 cells/ml) from hepatitis B and HIV-1 seronegative healthy donors were infected with HIV-1 (strain LAV) at a concentration of about 100 times the 50% tissue culture infectious dose (TICD 50) per ml and cultured in the presence and absence of various concentrations of antiviral compounds.
B. Approximately one hour after infection, the medium, with the compound to be tested (2 times the final concentration in medium) or without compound, was added to the flasks (5 ml; final volume 10 ml). AZT was used as a positive control.
C. The cells were exposed to the virus (about 2×10^5 dpm/ml, as determined by reverse transcriptase assay) and then placed in a CO2 incubator. HIV-1 (strain LAV) was obtained from the Center for Disease Control, Atlanta, Ga. The methods used for culturing the PBM cells, harvesting the virus and determining the reverse transcriptase activity were those described by McDougal et al. (J. Immun. Meth. 76, 171-183, 1985) and Spira et al. (J. Clin. Meth. 25, 97-99, 1987), except that fungizone was not included in the medium (see Schinazi, et al., Antimicrob. Agents Chemother. 32, 1784-1787 (1988); Id., 34:1061-1067 (1990)).
D. On day 6, the cells and supernatant were transferred to a 15 ml tube and centrifuged at about 900 g for 10 minutes. Five ml of supernatant were removed and the virus was concentrated by centrifugation at 40,000 rpm for 30 minutes (Beckman 70.1 Ti rotor). The solubilized virus pellet was processed for determination of the levels of reverse transcriptase. Results are expressed in dpm/ml of sampled supernatant. Virus from smaller volumes of supernatant (1 ml) can also be concentrated by centrifugation prior to solubilization and determination of reverse transcriptase levels.

The test system of data set [3] is AZT-resistant, HIV isolates. The settings on record: isolates from patients treated with AZT for longer than 36 weeks; cited from earlier work.
A short description of data set [4]: Cytotoxicity in mitogen stimulated uninfected human PBM cells (trypan blue exclusion). In kind it is cell-based. From the text: The cells were counted after 6 days using a hemacytometer and the trypan blue exclusion method, as described by Schinazi et al., Antimicrobial Agents and Chemotherapy, 22(3), 499 (1982).
The test system of data set [5] is HBV (hepatitis B virus).
Data set [6] has as its target reverse transcriptase activity. To be noted: read-out: EC50, concentration required to reduce the reverse transcriptase activity by 50%; cited from earlier work.
[7] abbreviates: Human immunodeficiency virus 1, PBMC, 0.001 μM, read-out: % Inhibition (Corrected).
Where [8] appears, read: Human immunodeficiency virus 1, PBMC, 0.005 μM, read-out: % Inhibition (Corrected).
Where [9] appears, read: Human immunodeficiency virus 1, PBMC, 0.01 μM, read-out: % Inhibition (Corrected).
Setting [10] is: Human immunodeficiency virus 1, PBMC, 0.05 μM, read-out: % Inhibition (Corrected).
The mark [11] stands for this setting: Human immunodeficiency virus 1, PBMC, 0.1 μM, read-out: % Inhibition (Corrected).
[12] abbreviates: Human immunodeficiency virus 1, PBMC, 0.5 μM, read-out: % Inhibition (Corrected).
Setting [13] is: Human immunodeficiency virus 1, PBMC, comparison nucleosides, source not stated, read-out: EC50.
Setting [14] is: human PBM cells infected with HIV-1, enantiomers isolated by chiral HPLC (Example 3), read-out: EC50.

Turning to `Nc1ccn(C2CSC(CO)O2)c(=O)n1` (racemic) [BCH-189 (±), 2-hydroxymethyl-5-(cytosin-1-yl)-1,3-oxathiolane, reference compound], the “activity against HIV compared with AZT” value in data set [1] is “approximately the same activity against HIV as AZT”. For the same compound, the DPM/ml in data set [2] (0.001 μM) is recorded as 65,170 DPM/ml; in data set [2] (0.005 μM), 62,595 DPM/ml; in data set [2] (0.01 μM), 70,875 DPM/ml; in data set [2] (0.05 μM) it was 77,650 DPM/ml; in data set [2] (0.1 μM), 33,165 DPM/ml; in data set [2] (0.5 μM), 10,765 DPM/ml. Moreover, the DPM/ml in data set [2] (1 μM) is reported as 7,745 DPM/ml; in data set [2] (5 μM) it was 6,800 DPM/ml; in data set [2] (10 μM), 4,470 DPM/ml. Also, the EC50 in data set [2] (Human immunodeficiency virus 1, PBMC, human PBM cells infected with HIV-1, enantiomers isolated by chiral HPLC (Example 3), read-out: EC50) came to 81 nM. The inhibition at 0.001 µM in data set [2] (setting [7]) is 36.1%. Also, in data set [2] (setting [8]), the inhibition at 0.005 µM is 38.9%. Also, the inhibition at 0.01 µM in data set [2] (setting [9]) was 29.8%. The inhibition at 0.05 µM in data set [2] (setting [10]) was found to be 22.3%. Moreover, the inhibition at 0.1 µM in data set [2] (setting [11]) was found to be 71.4%. Moreover, the inhibition at 0.5 µM in data set [2] (setting [12]) is 96.2%. For the same compound, in data set [2] (Human immunodeficiency virus 1, PBMC, 1 μM, read-out: % Inhibition (Corrected)), the inhibition at 1 µM came to 99.5%. Besides, the inhibition at 5 µM in data set [2] (Human immunodeficiency virus 1, PBMC, 5 μM, read-out: % Inhibition (Corrected)) is 101%. The inhibition at 10 µM in data set [2] (Human immunodeficiency virus 1, PBMC, 10 μM, read-out: % Inhibition (Corrected)) is 103%. Moreover, the “replication of AZT-resistant HIV isolates” value in data set [3] is “inhibit the replication”.
As for `Nc1nc(=O)n(C2CSC(CO)O2)cc1F` (single isomer, unassigned; (+)) [DLS-059 (+), (+)-2-hydroxymethyl-5-(5-fluorocytosin-1-yl)-1,3-oxathiolane], the DPM/ml is recorded as 94,340 DPM/ml in data set [2] (0.001 μM, listed as FTC (+)); 107,430 DPM/ml in data set [2] (0.005 μM, listed as FTC (+)); 99,465 DPM/ml in data set [2] (0.01 μM, listed as FTC (+)); 87,120 DPM/ml in data set [2] (0.05 μM, listed as FTC (+)); 86,340 DPM/ml in data set [2] (0.1 μM, listed as FTC (+)); 33,225 DPM/ml in data set [2] (0.5 μM, listed as FTC (+)). For the same compound, the “% Inhibition (Corrected)” value in data set [2] (0.001 μM, listed as FTC (+), 0.001 µM) is 3.8%; in data set [2] (0.005 μM, listed as FTC (+), 0.005 µM), −10.6%; in data set [2] (0.01 μM, listed as FTC (+), 0.01 µM), −1.8%; in data set [2] (0.05 μM, listed as FTC (+), 0.05 µM) it was 11.8%; in data set [2] (0.1 μM, listed as FTC (+), 0.1 µM) it was 12.7%; in data set [2] (0.5 μM, listed as FTC (+), 0.5 µM), 71.4%. The EC50 in data set [2] (summary range, listed as (+)-enantiomer of FTC, read-out: EC50 against HIV) was in the range of 280 to 840 nM.
In the case of `Nc1nc(=O)n(C2CSC(CO)O2)cc1F` (single isomer, unassigned; (-)) [DLS-058 (−), (−)-2-hydroxymethyl-5-(5-fluorocytosin-1-yl)-1,3-oxathiolane], in data set [4], the half-maximal inhibitory concentration (IC50) at 6 days was over 100000 nM. Besides, in data set [5], the “activity against HBV” value was “significant activity”. Moreover, the “% Inhibition (Corrected)” value in data set [2] (0.001 μM, listed as FTC (−)) is recorded as 23.8%; in data set [2] (0.005 μM, listed as FTC (−)), 43.3%; in data set [2] (0.01 μM, listed as FTC (−)), 24.8%; in data set [2] (0.05 μM, listed as FTC (−)) it was 76.2%; in data set [2] (0.1 μM, listed as FTC (−)) it was 93.5%; in data set [2] (0.5 μM, listed as FTC (−)), 97.6%. Further, the DPM/ml in data set [2] (0.001 μM, listed as FTC (−)) is 76,275 DPM/ml; in data set [2] (0.005 μM, listed as FTC (−)), 58,590 DPM/ml; in data set [2] (0.01 μM, listed as FTC (−)), 75,350 DPM/ml; in data set [2] (0.05 μM, listed as FTC (−)) it was 28,890 DPM/ml; in data set [2] (0.1 μM, listed as FTC (−)) it was 13,175 DPM/ml; in data set [2] (0.5 μM, listed as FTC (−)) it was 9,485 DPM/ml. Also, the EC50 in data set [2] (summary range, read-out: EC50 against HIV) was in the range of 7.7 to 20 nM.
`Nc1nc2c(ncn2[C@H]2C=C[C@@H](CO)O2)c(=O)[nH]1` [(+)-enantiomer of carbovir, 2′,3′-didehydro-2′,3′-dideoxyguanosine]: the EC50 in data set [6] was over 60000 nM.
As for `Nc1nc2c(ncn2[C@H]2C=C[C@@H](CO)O2)c(=O)[nH]1` [(−)-enantiomer of carbovir, 2′,3′-didehydro-2′,3′-dideoxyguanosine], the EC50 in data set [6] was 800 nM.
`[N-]=[N+]=N[C@H]1C[C@H](n2ccc(=O)[nH]c2=O)O[C@@H]1CO` [AZDU, 3′-azido-2′,3′-dideoxyuridine, reference compound]: the EC50 in data set [2] (setting [13]) is 180 to 460 nM.
For the compound `Nc1ccn(C2CSC(CO)O2)c(=O)n1` (stereo not drawn) [BCH-189 (+), 2-hydroxymethyl-5-(cytosin-1-yl)-1,3-oxathiolane], the DPM/ml in data set [2] (0.00085 μM) is given as 71,795 DPM/ml; in data set [2] (0.00425 μM), 99,710 DPM/ml; in data set [2] (0.0085 μM), 68,355 DPM/ml; in data set [2] (0.0415 μM) it was 82,845 DPM/ml; in data set [2] (0.0825 μM) it was 65,100 DPM/ml; in data set [2] (0.412 μM) it was 43,260 DPM/ml. In addition, in data set [2] (Human immunodeficiency virus 1, PBMC, 0.00085 μM, read-out: % Inhibition (Corrected)), the inhibition at 0.00085 µM was found to be 28.7%. In addition, the inhibition at 0.00425 µM in data set [2] (Human immunodeficiency virus 1, PBMC, 0.00425 μM, read-out: % Inhibition (Corrected)) is -2.1%. Besides, the inhibition at 0.0085 µM in data set [2] (Human immunodeficiency virus 1, PBMC, 0.0085 μM, read-out: % Inhibition (Corrected)) was found to be 32.5%. Also, the inhibition at 0.0415 µM in data set [2] (Human immunodeficiency virus 1, PBMC, 0.0415 μM, read-out: % Inhibition (Corrected)) came out at 16.5%. In addition, in data set [2] (Human immunodeficiency virus 1, PBMC, 0.0825 μM, read-out: % Inhibition (Corrected)), the inhibition at 0.0825 µM came to 36.1%. The inhibition at 0.412 µM in data set [2] (Human immunodeficiency virus 1, PBMC, 0.412 μM, read-out: % Inhibition (Corrected)) is 60.3%. Besides, the EC50 in data set [2] (setting [14]) is 230 nM.
Take `Nc1ccn(C2CSC(CO)O2)c(=O)n1` (stereo not drawn) [BCH-189 (−), 2-hydroxymethyl-5-(cytosin-1-yl)-1,3-oxathiolane]: the DPM/ml was 76,400 DPM/ml in data set [2] (0.001 μM); 66,875 DPM/ml in data set [2] (0.005 μM); 54,170 DPM/ml in data set [2] (0.01 μM); 57,615 DPM/ml in data set [2] (0.05 μM); 34,705 DPM/ml in data set [2] (0.1 μM); 15,250 DPM/ml in data set [2] (0.5 μM). Besides, the inhibition at 0.001 µM in data set [2] (setting [7]) was 23.6%. Further, the inhibition at 0.005 µM in data set [2] (setting [8]) was determined as 34.2%. Also, in data set [2] (setting [9]), the inhibition at 0.01 µM came out at 48.2%. Besides, the inhibition at 0.05 µM in data set [2] (setting [10]) stood at 44.4%. Further, the inhibition at 0.1 µM in data set [2] (setting [11]) is 69.7%. In addition, the inhibition at 0.5 µM in data set [2] (setting [12]) turned out to be 91.2%. Further, the EC50 in data set [2] (setting [14]) worked out at 16 nM.
Take `Nc1ncnc2c1ncn2[C@H]1CC[C@@H](CO)O1` [DDA, 2′,3′-dideoxyadenosine, reference compound]: the EC50 in data set [2] (setting [13]) came out at 910 nM.
Turning to `Nc1ccn([C@H]2CC[C@@H](CO)O2)c(=O)n1` [DDC, dideoxycytidine, reference compound], in data set [2] (setting [13]), the EC50 worked out at 11 nM.
As to `Cc1cn([C@H]2CC[C@@H](CO)O2)c(=O)[nH]c1=O` [DDT, 3′-dideoxythymidine, reference compound], the EC50 in data set [2] (comparison nucleosides, source not stated, read-out: EC50) is 170 nM.
